This is an account of results in patent US5503852A, “Method for making self-assembling diketopiperazine drug delivery system” (Pharmaceutical Discovery Corporation, priority 1994, dated 1996).

A short description of data set [1]: Solubility in aqueous media. Type of data set: physicochemical.
For data set [2] the following is noted: at clinically effective concentrations; cited from earlier work.
The nature of data set [3]: Blood glucose levels after insulin. The class given is in vivo, rats. The settings on record: subcutaneous; 100 μg insulin/kg. The protocol:
Porcine insulin (Sigma Chemical Co., St. Louis, Mo., Catalog No. 1 3505, specific activity: approximately 24 IU/mg) was encapsulated in 2,5-diketo- 3,6-di (4-fumarylamino)piperazine, prepared using the same method in Example 1, by dissolving the diketopiperazine in sodium bicarbonate to form a solution containing 12.5 mg diketopiperazine/ml solution. This solution was then mixed with an equal volume of citric acid solution containing porcine insulin at a concentration of 0.172 mg insulin/ml citric acid to form a white precipitate. The product was collected by centrifuge and washed once with 200 ml of deionized water, and then dried overnight in the lyophilizer. The product was assayed by HPLC and found to contain 1.6% insulin by weight.
In total, three male rats weighing about 200 g each were each administered a dose of 100 μg insulin/kg body weight. The dose was given subcutaneously and also as insulin encapsulated in diketopiperazine. Control animals received only the diketopiperazine and the vehicle, phosphate buffered saline. Blood glucose levels were measured on samples taken from the tail vein at various times after treatment and measured as mg of glucose/dl blood using one drop of tail blood squeezed onto a Glucofilm™ strip.

Turning to `O=C(O)CCC(=O)NCCCCC1NC(=O)C(CCCCNC(=O)CCC(=O)O)NC1=O` (stereo not shown) [2,5-diketo-3,6-di(4-succinylaminobutyl)piperazine], the solubility result in data set [1] (acidic aqueous solutions) is reported as “quite insoluble in acidic aqueous solutions”; in data set [1] (weakly alkaline aqueous solution), “readily soluble in weakly alkaline aqueous solution”.

As for `NC(=O)OCC(COC(N)=O)c1ccccc1` [felbamate], in data set [2], the “solubility in aqueous media” value is reported as “not soluble in aqueous media at clinically effective concentrations”.

As to “encapsulated insulin by subcutaneous injection: Porcine insulin (Sigma Chemical Co.), given subcutaneously”, the blood glucose level result in data set [3] is given as “A marked decrease in blood glucose level”.
